Assay results reported in ChEMBL document CHEMBL2321756, “From a cytotoxic agent to the discovery of a novel antimalarial agent” (Bioorg Med Chem Lett, 2013).
pIC50: −log10 of the molar value.

How the values were obtained:
[1] = Metabolic stability in human Caco2/TC7 cells at 50 uM up to 2 hrs; type: ADME, cell-based; conditions: caco-2, 2 h
[2] = Apparent permeability across apical to basolateral side in human Caco2/TC7 cells at 50 uM after 2 hrs; type: ADME, cell-based; conditions: Caco-2
[3] = system: Erythrocyte; test: Reduction of glutathione level in Wistar rat RBC at 25 ug/mL measured at 120 mins relative to untreated control; type: functional; parameters: scale not given: the % may be the effect or the level left
[4] = system: Erythrocyte; test: Reduction of glutathione level in Wistar rat RBC at 25 ug/mL measured at 90 mins relative to untreated control; type: functional; parameters: scale not given: the % may be the effect or the level left
[5] = system: Erythrocyte; test: Reduction of glutathione level in Wistar rat RBC at 25 ug/mL measured at 60 mins relative to untreated control; type: functional; parameters: scale not given: the % may be the effect or the level left
[6] = system: Erythrocyte; test: Reduction of glutathione level in Wistar rat RBC at 25 ug/mL measured at 15 mins relative to untreated control; type: functional; parameters: scale not given: the % may be the effect or the level left
[7] = system: Erythrocyte; test: Reduction of glutathione level in Wistar rat RBC at 25 ug/mL measured at 30 mins relative to untreated control; type: functional; parameters: scale not given: the % may be the effect or the level left
[8] = system: Erythrocyte; test: Reduction of glutathione level in Wistar rat RBC at 25 ug/mL measured at 5 mins relative to untreated control; type: functional; parameters: scale not given: the % may be the effect or the level left
[9] = Drug uptake in Wistar rat RBC at 25 ug/mL up to 2 hrs; type: ADME, cell-based; conditions: erythrocyte
[10] = Drug uptake in Wistar rat RBC at 25 ug/mL; type: ADME, cell-based; conditions: erythrocyte
[11] = system: Plasmodium falciparum; test: Selectivity ratio of IC50 for Plasmodium falciparum C235 to IC50 for Plasmodium falciparum D6; type: functional
[12] = system: Plasmodium falciparum; test: Antimalarial activity against Plasmodium falciparum C235 containing mdr1 transporter gene assessed as growth inhibition after 72 hrs by SYBR Green 1-based fluorescence assay; type: functional, organism-based; conditions: C235, MDR1, 72 h
[13] = system: Plasmodium falciparum; test: Antimalarial activity against Plasmodium falciparum D6 assessed as growth inhibition after 72 hrs by SYBR Green 1-based fluorescence assay; type: functional, organism-based; conditions: D6, 72 h
[14] = Apparent permeability across apical to basolateral side in human Caco2/TC7 cells after 2 hrs; type: ADME, cell-based; conditions: Caco-2

Compound	Stability [1]	Papp A→B at 2 h, 50 µM [2]	Activity [3]	Activity [4]	Activity [5]	Activity [6]	Activity [7]	Activity [8]	Drug uptake [9]	Drug uptake [10]	Ratio IC50 [11]	pIC50 [12]	pIC50 [13]	Papp A→B at 2 h [14]
Cl.O=C1/C(=C/c2ccc(Cl)cc2)CN(C(=O)c2ccc(OCCN3CCOCC3)cc2)C/C1=C\c1ccc(Cl)cc1	Stable	1.2 ×10⁻⁶ cm/s	10.9%	7.51%	8.95%	12.3%	12.9%	12.6%	80%	75%	3.3	5.71	6.22	
O[C@@H](c1cc(C(F)(F)F)nc2c(C(F)(F)F)cccc12)[C@H]1CCCCN1 [(S,R)-MEFLOQUINE]												7.30		
COCCc1ccc(OCC(O)CNC(C)C)cc1 (stereo not given) [METOPROLOL]														29.9 ×10⁻⁶ cm/s
